# Assay results reported in publication PMC11047580, “Design and Synthesis of Novel Amino and Acetamidoaurones with Antimicrobial Activities” (Antibiotics, 2024).
# What was measured:
# [1] = test system: Clostridium botulinum (DSM1985); assay: microbe, parasite or virus in culture; type: cell-based; conditions: DSM1985, read-out: MIC Clostridium botulinum (DSM1985)
# [2] = test system: Clostridium perfringens (ATCC13124); assay: microbe, parasite or virus in culture; type: cell-based; conditions: ATCC13124, read-out: MIC Clostridium perfringens (ATCC13124)
# Bacillus cereus (DSM31) = assay: MIC assay; type: cell-based; conditions: two-fold serial dilutions in liquid media, n = 2–3
# [3] = test system: Francisella tularensis (NR-643); assay: microbe, parasite or virus in culture; type: cell-based; conditions: read-out: MIC Francisella tularensis (NR-643)
# [4] = test system: Brucella melitensis (NR-256); assay: microbe, parasite or virus in culture; type: cell-based; conditions: read-out: MIC Brucella melitensis (NR-256)
# [5] = test system: Shigella flexneri (ATCC12022); assay: MIC assay; type: cell-based; conditions: two-fold serial dilutions in liquid media, n = 2–3
# [6] = test system: Listeria monocytogenes (DSM20600); assay: MIC assay; type: cell-based; conditions: two-fold serial dilutions in liquid media, n = 2–3
# [7] = test system: Clostridium difficile (DSM1296); assay: MIC assay; type: cell-based; conditions: Clostridioides difficile, two-fold serial dilutions in liquid media, n = 2–3
# [8] = test system: Aspergillus fumigatus (DSM819); assay: MIC assay; type: cell-based; conditions: two-fold serial dilutions in liquid media, n = 2–3
# C. albicans DSM10697 = assay: MIC assay; type: cell-based, Candida albicans; conditions: Candida albicans, DSM10697; two-fold serial dilutions in liquid media; n = 2–3
# [9] = test system: Helicobacter pylori (ATCC43504); assay: MIC assay; type: cell-based; conditions: two-fold serial dilutions in liquid media, n = 2–3
# [10] = Cytotoxic assay (resazurin); conditions: human, Caco-2
# [11] = test system: normal lung epithelial cells BEAS-2B; conditions: human
# [12] = test system: Propionibacterium acnes (ATCC6919); assay: MIC assay; type: cell-based; conditions: Cutibacterium acnes, two-fold serial dilutions in liquid media, n = 2–3
# [13] = test system: intestinal cell line Caco-2; conditions: human
# [14] = test system: Fusarium oxysporum (DSM62316); assay: MIC assay; type: cell-based; conditions: two-fold serial dilutions in liquid media, n = 2–3
# Yersinia pestis (NR-641) = assay: microbe, parasite or virus in culture; type: cell-based; conditions: read-out: MIC Yersinia pestis (NR-641)
# [15] = test system: kidney epithelial cell line A498; conditions: human
# [16] = test system: Streptococcus pyogenes (DSM20565); assay: MIC assay; type: cell-based; conditions: two-fold serial dilutions in liquid media, n = 2–3
# [17] = test system: Candida tropicalis (DSM9419); assay: MIC assay; type: cell-based; conditions: two-fold serial dilutions in liquid media, n = 2–3
# [18] = Cytotoxic assay (resazurin); conditions: human, A498 kidney epithelial cells
# B. subtilis ATCC6633 = assay: MIC assay; type: cell-based, Bacillus subtilis; conditions: Bacillus subtilis, ATCC6633; two-fold serial dilutions in liquid media; n = 2–3
# [19] = test system: normal lung fibroblasts IMR-90; conditions: human
# M. smegmatis ATCC700084 = assay: MIC assay (REMA); type: cell-based, Mycobacterium smegmatis; conditions: Mycolicibacterium smegmatis, ATCC700084, REMA microdilution, n = 2–3
# [20] = test system: human cells (A498, BEAS-2B, Caco-2, HaCaT, HepG2, IMR-90); assay: Cytotoxic assay, summary over the six human cell types
# [21] = as above; conditions: human, 48 h exposure
# [22] = test system: Klebsiella pneumonia (DSM26371); assay: MIC assay; type: cell-based; conditions: two-fold serial dilutions in liquid media, n = 2–3
# liver cell line HepG2 = conditions: human
# [23] = test system: Mycobacterium tuberculosis H37Rv (mc^26230); assay: MIC assay (REMA); type: cell-based; conditions: REMA microdilution, n = 2–3
# [24] = test system: Mycobacterium abscessus R(CIP 104536^T); assay: MIC assay (REMA); type: cell-based; conditions: REMA microdilution, n = 2–3
# [25] = test system: Enterococcus faecalis (DSM2570); assay: MIC assay; type: cell-based; conditions: two-fold serial dilutions in liquid media, n = 2–3
# [26] = test system: Candida glabrata (DSM11226); assay: MIC assay; type: cell-based; conditions: Nakaseomyces glabratus, two-fold serial dilutions in liquid media, n = 2–3
# [27] = test system: Bacillus anthracis (CNR-charbon_04022); assay: microbe, parasite or virus in culture; type: cell-based; conditions: read-out: MIC Bacillus anthracis (CNR-charbon_04022)
# Candida auris (DSM21092) = assay: MIC assay; type: cell-based; conditions: Candidozyma auris, two-fold serial dilutions in liquid media, n = 2–3
# [28] = test system: Enterobacter cloacae (DSM30054); assay: MIC assay; type: cell-based; conditions: two-fold serial dilutions in liquid media, n = 2–3
# [29] = test system: Enterococcus faecium (DSM20477); assay: MIC assay; type: cell-based; conditions: two-fold serial dilutions in liquid media, n = 2–3
# E. coli ATCC8739 = assay: MIC assay; type: cell-based, Escherichia coli; conditions: Escherichia coli, ATCC8739; two-fold serial dilutions in liquid media; n = 2–3
smiles,measurement,setting,value
"CC(=O)Nc1ccc2c(c1)C(=O)/C(=C/c1cccc(OCc3ccccc3)c1)O2 [Compound 10, (Z)-N-(2-(3-(benzyloxy)benzylidene)-3-oxo-2,3-dihydrobenzofuran-5-yl)acetamide]",MIC,[1],0.78 µM
same,MIC,[2],> 100 µM
same,MIC,Bacillus cereus (DSM31),12.5 µM
same,MIC,[3],50 µM
same,MIC,[4],25 µM
same,MIC,[5],25 µM
same,MIC,[6],3.12 µM
same,MIC,[7],12.5 µM
same,MIC,"[8]; Aspergillus fumigatus, DSM819",> 100 µM
same,MIC Aspergillus fumigatus (DSM819),[8],inactive
same,MIC,C. albicans DSM10697,50 µM
same,MIC,[9],12.5 µM
same,CC50 at 48 h,[10],200 µM
same,"TI with MIC of 0.78 µM, BEAS-2B",[11],216.6
same,MIC,[12],100 µM
same,"TI with MIC of 0.78 µM, Caco-2",[13],255.8
same,MIC,[14],25 µM
same,MIC,Yersinia pestis (NR-641),12.5 µM
same,"TI with MIC of 0.78 µM, A498",[15],510.5
same,MIC,[16],50 µM
same,MIC,[17],100 µM
same,CC50 at 48 h,[18],398 µM
same,MIC,B. subtilis ATCC6633,3.12 µM
same,"TI with MIC of 0.78 µM, IMR-90",[19],540.2
same,MIC,M. smegmatis ATCC700084,50 µM
same,Highest TI,[20]; highest CC50 on human cells divided by MIC on S. aureus,37.7
same,Lowest TI,[20]; lowest CC50 on human cells divided by MIC on S. aureus,13.5
same,CC50 at 48 h,"[21]; Highest CC50, highest of the six human cell types",472 µM
same,CC50 at 48 h,"[21]; Lowest CC50, lowest of the six human cell types",169 µM
same,CC50 at 48 h,"[21]; Mean CC50, mean over the six human cell types",322 µM
same,MIC,"[22]; Klebsiella pneumoniae, DSM26371",> 100 µM
same,MIC,[22],>100 µM
same,"TI with MIC of 0.78 µM, HepG-2",liver cell line HepG2,605.6
same,MIC,"[23]; Mycobacterium tuberculosis, H37RV",> 100 µM
same,MIC Mycobacterium tuberculosis H37Rv (mc^26230),[23],inactive
same,MIC,"[24]; Mycobacteroides abscessus, CIP104536, R morphotype",> 100 µM
same,MIC Mycobacterium abscessus R(CIP 104536^T),[24]; R morphotype,inactive
same,MIC,[25],50 µM
same,MIC,[26],50 µM
same,MIC,[27],12.5 µM
same,MIC,Candida auris (DSM21092),50 µM
same,MIC,"[28]; Enterobacter cloacae, DSM30054",> 100 µM
same,MIC,[28],>100 µM
same,MIC,[29],100 µM
same,MIC,E. coli ATCC8739,12.5 µM
